Experimental data as given in US6770287B1, “Biocidal cellulosic material” (The Regents of the University of California, priority 2000, dated 2004).

Assays:
S. aureus [1] = experiment: AATCC Test Method 100 quantitative antibacterial test (bacterial reduction); type: cell-based, Staphylococcu aureus (ATCC 5368); conditions: for Bacterial Reduction Rates After fifteen washings S. aur. / Bacterial Reduction Rates After five Washings S. aur. / Bacterial Reduction Rates After ten Washings S. aur. / Bacterial Reduction Rates After twenty washings S. aur.: contact time 60 min
Description: AATCC Test Method 100 was adopted in this study. According to this test method, four pieces of staked circular fabric swatches 4.8±0.1 (about one grams) were inoculated with 1.0±0.1 milliliter of inoculum in a 250 milliliter jar. The inoculum was a nutrient broth culture containing over 1.0×10^6 clone forming units (CFU) of organisms. After the swatches were inoculated, they were neutralized by 100 milliliter of a 0.02% sodium thiosulfate solution in the jar. The contact time was the time between inoculation and neutralization. The jar was vigorously shaken and the neutralized solution was diluted in serial. The dilutions, usually 100, 101, and 102, were plated on nutrient agar and incubated for 18-24 hours at 37° C. The number of bacteria recovered from the inoculated finished fabrics was counted and compared with that from untreated fabrics. Six log reduction means the total inactivation of bacteria, and one log reduction means that finished fabrics reduced bacteria counts from 106 CFU to 105 CFU.
Finished fabrics prepared from solutions containing 1%-6% of monomethylol-5,5-dimethylhydantoin following the protocol set forth in Example 1 with pickup rates below 1% have been tested.
Fabrics finished in accordance with the protocol set forth in Example II with Anti-2, i.e., 1,3-dimethylol-5,5-dimethylhydantoin, were also tested with AATCC test method 100, which was briefly described in Example IV. In the tests, a diluted CLOROX® solution containing 0.01 % active chlorine was used to chlorinate the finished fabrics.

S. aureus [2] = experiment: AATCC Test Method 147 qualitative antibacterial test (inhibition zone); type: cell-based, Staphylococcu aureus (ATCC 5368)
E. coli = experiment: as above; type: cell-based, Escherichia coli (ATCC 2666)
S. aureus [3] = experiment: as above; type: cell-based, Staphylococcu aureus (ATCC 5368); remark: listed apart in the source
Description: Fabric samples of #405 (pure cotton, Testfabrics, Inc., Middlesex, N.J.) and # 7402 (cotton/polyester 35/65, Testfabrics, Inc., Middlesex, N.J.) were finished in a manner similar to that set forth in Example I. The concentration of the finishing agent used was from about 5 to 15% in the finishing of the cotton fabrics and from about 5 to 20% in the finishing of the cotton/polyester (35/65) blend fabric because of the lower concentration of cellulose in the blend. The final biocidal property was imparted onto the finished fabrics by washing them with a diluted CLOROX® solution containing 0.25% chlorine after each washing circle. Qualitative antibacterial tests were conducted according to AATCC Test Method 147.
In the AATCC Test Method 147, two pieces of chlorinated fabrics with the size of 25 mm×50 mm were placed on a nutrient agar plate which had been inoculated by five streaks of a diluted bacteria solution using a 4 mm inoculating loop. The diluted bacteria solution was prepared by transferring 1.0 milliliter of 24 hour broth culture into 9.0 milliliter of sterile distilled water. The agar plate was incubated at 37° C. for 18-24 hours. The minimum width of inhibition zone along a streak on either side of the test specimen are measured. Table I sets forth the qualitative biocidal evaluations of the finished fabrics with different concentration of the agent Anti-1.

[4] = Anti-1 4%, #7402, take up 0.45%
[5] = Anti-1 6%, #7402, take up 0.70%
[6] = Dacron/Cotton 65/35 #7402, add-on 1.19%
[7] = Terry cloth 100% Cotton, add-on 1.40%
[8] = Cotton cloth #400, add-on 1.43%
[9] = #405 cotton, Anti-1 5%, add-on 1.2%
[10] = #405 cotton, Anti-1 10%, add-on 2.3%
[11] = #405 cotton, Anti-1 15%, add-on 3.1%
[12] = #7402 cotton/polyester 35/65, Anti-1 5%, add-on 0.8%
[13] = #7402 cotton/polyester 35/65, Anti-1 10%, add-on 1.4%
[14] = #7402 cotton/polyester 35/65, Anti-1 15%, add-on 1.6%
[15] = #7402 cotton/polyester 35/65, Anti-1 20%, add-on 2.0%

CC1(C)NC(=O)N(CO)C1=O [Anti-1, monomethylol-5,5-dimethylhydantoin]
1 log: Bacterial Reduction Rates After twenty washings S. aur. (S. aureus [1]; Cl 0.25%, #7409, Anti-1 4%)
>4.0 mm: Biocidal results against S. aureus after being activated (S. aureus [2]; [6])
6 log: Bacterial reduction rates on contact time 30 min S. aureus (S. aureus [1]; [4]) | Bacterial reduction rates on contact time 60 min S. aureus (S. aureus [1]; [4]) | Bacterial reduction rates on contact time 0 min S. aureus (S. aureus [1]; Anti-1 6%, #400, take up 0.70%) | Bacterial reduction rates on contact time 30 min S. aureus (S. aureus [1]; Anti-1 6%, #400, take up 0.70%) | Bacterial reduction rates on contact time 60 min S. aureus (S. aureus [1]; Anti-1 6%, #400, take up 0.70%) | Bacterial reduction rates on contact time 0 min S. aureus (S. aureus [1]; [5]) | Bacterial reduction rates on contact time 30 min S. aureus (S. aureus [1]; [5]) | Bacterial reduction rates on contact time 60 min S. aureus (S. aureus [1]; [5]) | Bacterial Reduction Rates After fifteen washings S. aur. (S. aureus [1]; Cl 0.01%, #400, Anti-1 4%) | Bacterial Reduction Rates After five Washings S. aur. (S. aureus [1]; Cl 0.01%, #400, Anti-1 4%) | Bacterial Reduction Rates After ten Washings S. aur. (S. aureus [1]; Cl 0.01%, #400, Anti-1 4%) | Bacterial Reduction Rates After twenty washings S. aur. (S. aureus [1]; Cl 0.01%, #400, Anti-1 4%) | Bacterial Reduction Rates After fifteen washings S. aur. (S. aureus [1]; Cl 0.01%, #7409, Anti-1 4%) | Bacterial Reduction Rates After five Washings S. aur. (S. aureus [1]; Cl 0.01%, #7409, Anti-1 4%) | Bacterial Reduction Rates After ten Washings S. aur. (S. aureus [1]; Cl 0.01%, #7409, Anti-1 4%) | Bacterial Reduction Rates After twenty washings S. aur. (S. aureus [1]; Cl 0.01%, #7409, Anti-1 4%) | Bacterial Reduction Rates After fifteen washings S. aur. (S. aureus [1]; Cl 0.1%, #400, Anti-1 4%) | Bacterial Reduction Rates After five Washings S. aur. (S. aureus [1]; Cl 0.1%, #400, Anti-1 4%) | Bacterial Reduction Rates After ten Washings S. aur. (S. aureus [1]; Cl 0.1%, #400, Anti-1 4%) | Bacterial Reduction Rates After fifteen washings S. aur. (S. aureus [1]; Cl 0.1%, #7409, Anti-1 4%) | Bacterial Reduction Rates After five Washings S. aur. (S. aureus [1]; Cl 0.1%, #7409, Anti-1 4%) | Bacterial Reduction Rates After ten Washings S. aur. (S. aureus [1]; Cl 0.1%, #7409, Anti-1 4%) | Bacterial Reduction Rates After twenty washings S. aur. (S. aureus [1]; Cl 0.1%, #7409, Anti-1 4%) | Bacterial Reduction Rates After five Washings S. aur. (S. aureus [1]; Cl 0.25%, #400, Anti-1 4%) | Bacterial Reduction Rates After fifteen washings S. aur. (S. aureus [1]; Cl 0.25%, #7409, Anti-1 4%) | Bacterial Reduction Rates After five Washings S. aur. (S. aureus [1]; Cl 0.25%, #7409, Anti-1 4%) | Bacterial Reduction Rates After ten Washings S. aur. (S. aureus [1]; Cl 0.25%, #7409, Anti-1 4%)
>10 mm: Biocidal results against E. coli after being activated (E. coli; [6]) | Biocidal results against E. coli after being activated (E. coli; [7])
>2.0 mm: Biocidal results against E. coli after being activated (E. coli; [8])
˜1 mm: Biocidal Results After 50 Times Washing S. aureus (S. aureus [3]; [9]) | Biocidal Results After 50 Times Washing S. aureus (S. aureus [3]; [12]) | Biocidal Results After 50 Times Washing S. aureus (S. aureus [3]; [13])
>1 mm: Biocidal Results After 20 Times Washing S. aureus (S. aureus [3]; [9]) | Biocidal Results After 50 Times Washing S. aureus (S. aureus [3]; [10]) | Biocidal Results After 20 Times Washing S. aureus (S. aureus [3]; [12]) | Biocidal Results After 20 Times Washing S. aureus (S. aureus [3]; [13]) | Biocidal Results After 50 Times Washing S. aureus (S. aureus [3]; [14]) | Biocidal Results After 50 Times Washing S. aureus (S. aureus [3]; [15])
kill all: Biocidal results against S. aureus after being activated (S. aureus [2]; [7]) | Biocidal Results After 20 Times Washing S. aureus (S. aureus [3]; [11]) | Biocidal Results After 20 Times Washing S. aureus (S. aureus [3]; [14])
0 log: Bacterial Reduction Rates After twenty washings S. aur. (S. aureus [1]; Cl 0.1%, #400, Anti-1 4%) | Bacterial Reduction Rates After fifteen washings S. aur. (S. aureus [1]; Cl 0.25%, #400, Anti-1 4%) | Bacterial Reduction Rates After ten Washings S. aur. (S. aureus [1]; Cl 0.25%, #400, Anti-1 4%) | Bacterial Reduction Rates After twenty washings S. aur. (S. aureus [1]; Cl 0.25%, #400, Anti-1 4%)
>4 mm: Biocidal Results After 50 Times Washing S. aureus (S. aureus [3]; [11]) | Biocidal Results After 20 Times Washing S. aureus (S. aureus [3]; [15])
>3 mm: Biocidal Results After 20 Times Washing S. aureus (S. aureus [3]; [10])
>1.0 mm: Biocidal results against S. aureus after being activated (S. aureus [2]; Rayon, add-on 1.21%) | Biocidal results against E. coli after being activated (E. coli; Rayon, add-on 1.21%) | Biocidal results against S. aureus after being activated (S. aureus [3]; [8])
